The results in this text go back to ChEMBL document CHEMBL4382234, “Fluoroquinolone-isatin hybrids and their biological activities” (Eur J Med Chem, 2019).

Common to all, as to assay type: functional
Test [1] concerns Mycobacterium tuberculosis. As to the kind of experiment: Antimycobacterial activity against multidrug-resistant Mycobacterium tuberculosis 09710 by rapid direct susceptibility test.
Test [2] has as its system Mycobacterium tuberculosis. Put plainly: Antimycobacterial activity against multidrug-resistant Mycobacterium tuberculosis after 3 to 7 days by rapid direct susceptibility test.
The test system of test [3] is Mycobacterium tuberculosis. Put plainly: Antimycobacterial activity against isoniazid/rifampicin/ethambutol-resistant Mycobacterium tuberculosis after 3 to 7 days by rapid direct susceptibility test.
Test [4] concerns Mycobacterium tuberculosis. As to the kind of experiment: Potency index, ratio of gatifloxacin MIC to test compound MIC for multidrug-resistant Mycobacterium tuberculosis.
For test [5], the system named is Mycobacterium tuberculosis. As to the kind of experiment: Potency index, ratio of isoniazid MIC to test compound MIC for multidrug-resistant Mycobacterium tuberculosis.
In test [6] the test system is Mycobacterium tuberculosis. As to the kind of experiment: Potency index, ratio of rifampicin MIC to test compound MIC for multidrug-resistant Mycobacterium tuberculosis.

In brackets after ≈: the same amount, converted by molar mass.

`CCO/N=C1\C(=O)N(CCN2CCC[C@H]3CN(c4c(F)cc5c(=O)c(C(=O)O)cn(C6CC6)c5c4OC)C[C@H]32)c2ccc(F)cc21` displayed an MIC in test [1] of 0.39 to 16 µg/mL (≈ 0.614 to 25.2 µM).

In turn, `COc1c(N2C[C@@H]3CCCN(CN4C(=O)/C(=N\NC(N)=S)c5cc(F)ccc54)[C@@H]3C2)c(F)cc2c(=O)c(C(=O)O)cn(C3CC3)c12` gave an MIC in test [1] of 0.39 to 16 µg/mL (≈ 0.598 to 24.6 µM). Same read-out and setting: under `CO/N=C1\C(=O)N(CN2CCC[C@H]3CN(c4c(F)cc5c(=O)c(C(=O)O)cn(C6CC6)c5c4OC)C[C@H]32)c2ccc(F)cc21` stands 0.39 to 16 µg/mL (≈ 0.642 to 26.3 µM); under `COc1c(N2C[C@@H]3CCCN(CCN4C(=O)/C(=N\NC(N)=O)c5ccccc54)[C@@H]3C2)c(F)cc2c(=O)c(C(=O)O)cn(C3CC3)c12`, 0.39 to 16 µg/mL (≈ 0.617 to 25.3 µM). `CO/N=C1/C(=O)N(CCn2cc(CN3CCC[C@H]4CN(c5c(F)cc6c(=O)c(C(=O)O)cn(C7CC7)c6c5OC)C[C@H]43)nn2)c2ccccc21`: the MIC in test [2] lay in the range of 0.1 to 0.78 µg/mL (≈ 0.146 to 1.14 µM). Take `NC(=S)N/N=C1/C(=O)N(CCCN2CCN(c3cc4c(cc3F)c(=O)c(C(=O)O)cn4C3CC3)CC2)c2ccccc21`: in test [3], the MIC was in the range of 0.1 to 64 µg/mL (≈ 0.169 to 108 µM). In turn, `CO/N=C1\C(=O)N(CCN2CCC[C@H]3CN(c4c(F)cc5c(=O)c(C(=O)O)cn(C6CC6)c5c4OC)C[C@H]32)c2cc(F)ccc21` registered an MIC in test [1] of 0.39 to 16 µg/mL (≈ 0.627 to 25.7 µM). `CCO/N=C1/C(=O)N(CCn2cc(CN3CCC[C@H]4CN(c5c(F)cc6c(=O)c(C(=O)O)cn(C7CC7)c6c5OC)C[C@H]43)nn2)c2ccccc21` showed an MIC in test [2] of 0.1 to 0.78 µg/mL (≈ 0.143 to 1.12 µM). Compound `CCO/N=C1\C(=O)N(CCN2CCC[C@H]3CN(c4c(F)cc5c(=O)c(C(=O)O)cn(C6CC6)c5c4OC)C[C@H]32)c2ccccc21` had a minimum inhibitory concentration (MIC) in test [1] of 0.39 to 16 µg/mL (≈ 0.631 to 25.9 µM). The compound `COc1c(N2C[C@@H]3CCCN(Cc4cn(CCN5C(=O)/C(=N/NC(N)=O)c6ccccc65)nn4)[C@@H]3C2)c(F)cc2c(=O)c(C(=O)O)cn(C3CC3)c12` returned a minimal inhibitory concentration (MIC) in test [2] of 0.1 to 0.78 µg/mL (≈ 0.14 to 1.09 µM). As for `COc1c(N2C[C@@H]3CCCN(CN4C(=O)C(=O)c5cc(F)ccc54)[C@@H]3C2)c(F)cc2c(=O)c(C(=O)O)cn(C3CC3)c12`, in test [1], the MIC is 0.39 to 16 µg/mL (≈ 0.674 to 27.7 µM). The same measure, in the same setting: under `COc1c(N2C[C@@H]3CCCN(CCN4C(=O)/C(=N\NC(N)=S)c5cc(F)ccc54)[C@@H]3C2)c(F)cc2c(=O)c(C(=O)O)cn(C3CC3)c12` stands 0.39 to 16 µg/mL (≈ 0.586 to 24 µM). Consider `COc1c(N2C[C@@H]3CCCN(Cc4cn(CCN5C(=O)C(=O)c6ccccc65)nn4)[C@@H]3C2)c(F)cc2c(=O)c(C(=O)O)cn(C3CC3)c12`, for which the MIC in test [2] was in the range of 0.1 to 0.78 µg/mL (≈ 0.153 to 1.19 µM).

In test [3], `O=C(O)c1cn(C2CC2)c2cc(N3CCN(CCCN4C(=O)/C(=N/O)c5ccccc54)CC3)c(F)cc2c1=O` had an MIC of 0.1 to 64 µg/mL (≈ 0.187 to 120 µM).

The compound `CCO/N=C1\C(=O)N(CN2CCC[C@H]3CN(c4c(F)cc5c(=O)c(C(=O)O)cn(C6CC6)c5c4OC)C[C@H]32)c2ccc(F)cc21` displayed an MIC in test [1] of 0.39 to 16 µg/mL (≈ 0.627 to 25.7 µM). On the same count and under the same terms, the value for `COc1c(N2C[C@@H]3CCCN(CN4C(=O)/C(=N\NC(N)=O)c5cc(F)ccc54)[C@@H]3C2)c(F)cc2c(=O)c(C(=O)O)cn(C3CC3)c12` was 0.39 to 16 µg/mL (≈ 0.614 to 25.2 µM). Turning to `COc1c(N2C[C@@H]3CCCN(CCN4C(=O)/C(=N\NC(N)=O)c5cc(F)ccc54)[C@@H]3C2)c(F)cc2c(=O)c(C(=O)O)cn(C3CC3)c12`, the MIC in test [1] is 0.39 to 16 µg/mL (≈ 0.6 to 24.6 µM).

In test [1], `COc1c(N2C[C@@H]3CCCN(CCN4C(=O)C(=O)c5cc(F)ccc54)[C@@H]3C2)c(F)cc2c(=O)c(C(=O)O)cn(C3CC3)c12` had an MIC of 0.39 to 16 µg/mL (≈ 0.658 to 27 µM). Still for that read-out and setting: under `COc1c(N2C[C@@H]3CCCN(CN4C(=O)/C(=N\O)c5ccccc54)[C@@H]3C2)c(F)cc2c(=O)c(C(=O)O)cn(C3CC3)c12` stands 0.39 to 16 µg/mL (≈ 0.678 to 27.8 µM); under `COc1c(N2C[C@@H]3CCCN(CN4C(=O)C(=O)c5ccccc54)[C@@H]3C2)c(F)cc2c(=O)c(C(=O)O)cn(C3CC3)c12`, 0.39 to 16 µg/mL (≈ 0.696 to 28.5 µM). Still for that read-out and setting: the value for `COc1c(N2C[C@@H]3CCCN(CCN4C(=O)/C(=N\NC(N)=S)c5ccccc54)[C@@H]3C2)c(F)cc2c(=O)c(C(=O)O)cn(C3CC3)c12` was 0.39 to 16 µg/mL (≈ 0.602 to 24.7 µM). In test [3], `Cc1ccc2c(c1)/C(=N\NC(N)=O)C(=O)N2CCCN1CCN(c2cc3c(cc2F)c(=O)c(C(=O)O)cn3C2CC2)CC1` showed an MIC of 0.1 to 64 µg/mL (≈ 0.17 to 109 µM).

With `COc1c(N2C[C@@H]3CCCN(Cc4cn(CCN5C(=O)/C(=N/O)c6ccccc65)nn4)[C@@H]3C2)c(F)cc2c(=O)c(C(=O)O)cn(C3CC3)c12`, in test [2], the MIC was 0.1 to 0.78 µg/mL (≈ 0.149 to 1.16 µM). Turning to `COc1c(N2C[C@@H]3CCCN(CCN4C(=O)C(=O)c5ccccc54)[C@@H]3C2)c(F)cc2c(=O)c(C(=O)O)cn(C3CC3)c12`, the MIC in test [1] fell in the range of 0.39 to 16 µg/mL (≈ 0.679 to 27.8 µM). As for `COc1c(N2C[C@@H]3CCCN(Cc4cn(CCN5C(=O)C(=O)c6cc(Br)ccc65)nn4)[C@@H]3C2)c(F)cc2c(=O)c(C(=O)O)cn(C3CC3)c12`, in test [2], the MIC fell in the range of 0.1 to 0.78 µg/mL (≈ 0.136 to 1.06 µM).

`CO/N=C1\C(=O)N(CN2CCC[C@H]3CN(c4c(F)cc5c(=O)c(C(=O)O)cn(C6CC6)c5c4OC)C[C@H]32)c2ccccc21` returned an MIC in test [1] of 0.39 to 16 µg/mL (≈ 0.661 to 27.1 µM).

On to `COc1c(N2C[C@@H]3CCCN(CN4C(=O)/C(=N\NC(N)=S)c5ccccc54)[C@@H]3C2)c(F)cc2c(=O)c(C(=O)O)cn(C3CC3)c12`, for which the MIC in test [1] lay within 0.39 to 16 µg/mL (≈ 0.615 to 25.2 µM). Regarding `CO/N=C1/C(=O)N(CCn2cc(CN3CCC[C@H]4CN(c5c(F)cc6c(=O)c(C(=O)O)cn(C7CC7)c6c5OC)C[C@H]43)nn2)c2ccc(Br)cc21`, in test [2], the MIC lay within 0.1 to 0.78 µg/mL (≈ 0.131 to 1.02 µM). The compound `CCO/N=C1/C(=O)N(CCn2cc(CN3CCC[C@H]4CN(c5c(F)cc6c(=O)c(C(=O)O)cn(C7CC7)c6c5OC)C[C@H]43)nn2)c2ccc(Br)cc21` registered an MIC in test [2] of 0.1 to 0.78 µg/mL (≈ 0.129 to 1 µM). Compound `Cc1ccc2c(c1)/C(=N\NC(N)=S)C(=O)N2CCCN1CCN(c2cc3c(cc2F)c(=O)c(C(=O)O)cn3C2CC2)CC1` registered an MIC in test [3] of 0.1 to 64 µg/mL (≈ 0.165 to 106 µM). `COc1c(N2C[C@@H]3CCCN(Cc4cn(CCN5C(=O)/C(=N/O)c6cc(Br)ccc65)nn4)[C@@H]3C2)c(F)cc2c(=O)c(C(=O)O)cn(C3CC3)c12` had an MIC in test [2] of 0.1 to 0.78 µg/mL (≈ 0.133 to 1.04 µM). Turning to `CO/N=C1\C(=O)N(CCN2CCC[C@H]3CN(c4c(F)cc5c(=O)c(C(=O)O)cn(C6CC6)c5c4OC)C[C@H]32)c2ccccc21`, in test [1], the MIC is 0.39 to 16 µg/mL (≈ 0.646 to 26.5 µM).

Regarding `COc1c(N2C[C@@H]3CCCN(CCN4C(=O)/C(=N\O)c5cc(F)ccc54)[C@@H]3C2)c(F)cc2c(=O)c(C(=O)O)cn(C3CC3)c12`, the MIC in test [1] was in the range of 0.39 to 16 µg/mL (≈ 0.642 to 26.3 µM).

Consider `COc1c(N2C[C@@H]3CCCN(CN4C(=O)/C(=N\O)c5cc(F)ccc54)[C@@H]3C2)c(F)cc2c(=O)c(C(=O)O)cn(C3CC3)c12`, for which the MIC in test [1] was in the range of 0.39 to 16 µg/mL (≈ 0.657 to 27 µM). As for `CCO/N=C1\C(=O)N(CN2CCC[C@H]3CN(c4c(F)cc5c(=O)c(C(=O)O)cn(C6CC6)c5c4OC)C[C@H]32)c2ccccc21`, the MIC in test [1] is 0.39 to 16 µg/mL (≈ 0.646 to 26.5 µM). In test [3], `Cc1ccc2c(c1)/C(=N\O)C(=O)N2CCCN1CCN(c2cc3c(cc2F)c(=O)c(C(=O)O)cn3C2CC2)CC1` registered an MIC of 0.1 to 64 µg/mL (≈ 0.183 to 117 µM).

As to `COc1c(N2C[C@@H]3CCCN(CCN4C(=O)/C(=N\O)c5ccccc54)[C@@H]3C2)c(F)cc2c(=O)c(C(=O)O)cn(C3CC3)c12`, the MIC in test [1] lay in the range of 0.39 to 16 µg/mL (≈ 0.661 to 27.1 µM). As to `CO/N=C1/C(=O)N(CCCN2CCN(c3c(F)cc4c(=O)c(C(=O)O)cn(C5CC5)c4c3OC)CC2C)c2ccc(F)cc21` (centres undefined), the Ratio entry in test [4], in test [5] and in test [6] was “>=4 - 512” in each case. The same compound yielded an MIC in test [2] of 0.25 µg/mL (≈ 0.41 µM). In test [1], `COc1c(N2C[C@@H]3CCCN(CN4C(=O)/C(=N\NC(N)=O)c5ccccc54)[C@@H]3C2)c(F)cc2c(=O)c(C(=O)O)cn(C3CC3)c12` yielded an MIC of 0.39 to 16 µg/mL (≈ 0.631 to 25.9 µM). In test [2], `COc1c(N2C[C@@H]3CCCN(Cc4cn(CCN5C(=O)/C(=N/NC(N)=O)c6cc(Br)ccc65)nn4)[C@@H]3C2)c(F)cc2c(=O)c(C(=O)O)cn(C3CC3)c12` yielded an MIC of 0.1 to 0.78 µg/mL (≈ 0.126 to 0.985 µM).

Consider `NC(=O)N/N=C1/C(=O)N(CCCN2CCN(c3cc4c(cc3F)c(=O)c(C(=O)O)cn4C3CC3)CC2)c2ccccc21`, for which the MIC in test [3] was in the range of 0.1 to 64 µg/mL (≈ 0.174 to 111 µM). In test [2], `COc1c(N2CCNC(C)C2)c(F)cc2c(=O)c(C(=O)O)cn(C3CC3)c12` (centres undefined) [GATIFLOXACIN] yielded an MIC of 1 µg/mL (≈ 2.66 µM). On the same count and under the same terms, the value for `NNC(=O)c1ccncc1` [ISONIAZID] was more than 128 µg/mL. Turning to `COc1c(N2C[C@@H]3CCCN[C@@H]3C2)c(F)cc2c(=O)c(C(=O)O)cn(C3CC3)c12` [MOXIFLOXACIN], the MIC in test [1] is 0.1 to 1 µg/mL (≈ 0.249 to 2.49 µM); in test [2], 0.12 µg/mL (≈ 0.299 µM). For `CO[C@H]1/C=C/O[C@@]2(C)Oc3c(C)c(O)c4c(O)c(c(/C=N/N5CCN(C)CC5)c(O)c4c3C2=O)NC(=O)/C(C)=C\C=C\[C@H](C)[C@H](O)[C@@H](C)[C@@H](O)[C@@H](C)[C@H](OC(C)=O)[C@@H]1C` [RIFAMPIN], the MIC in test [2] is 32 to 64 µg/mL (≈ 38.9 to 77.8 µM).
